Results taken from US20260022143A1, “Cyclic Peptide Inhibitors of IL-23” (JANSSEN PHARMACEUTICA NV, priority 2022, published 2026).
Structures can show the parent of a compound that is named as a salt. Where two headings read alike, the source gives them in different places. Starred links: 1 amine or outer side, 2 acyl side, 3 side chain; linkers in the order of their positions; H or OH if unused. Positions of bridges follow the written chain, without caps; N, C: chain ends. Non-standard residues stand in square brackets, D forms with d. Residues, ends and D or L forms follow the SMILES beside them. Groups on a side chain read outwards from the residue. ξ: configuration not given here. *: point of attachment. X48 = CCCCCCCCCCCC(=O)N[C@@H](CCC(=O)*)C(=O)N[C@H](CC(=O)O)C[N+](C)(C)C; Me3N+(CH2)2O(CH2)2O(CH2)2CO = C[N+](C)(C)CCOCCOCCC(=O)*; CH2CH2OCH2CH2OCH2CH2NMe3+ = C[N+](C)(C)CCOCCOCC*; dTrp(7-Me) = Cc1cccc2c(C[C@@H](N)C(=O)O)c[nH]c12; Trp(7-Me) = Cc1cccc2c(C[C@H](N)C(=O)O)c[nH]c12; d(hLys(Me3)) = C[N+](C)(C)CCCCC[C@@H](N)C(=O)O; Abu(4-yl) = O=C([C@H](CC[*:3])N[*:1])[*:2]; dLys(Me3) = C[N+](C)(C)CCCC[C@@H](N)C(=O)O; γGlu = O=C(O)[C@H](CCC(=O)[*:2])N[*:1]; 2Nal = N[C@@H](Cc1ccc2ccccc2c1)C(=O)O; AEF = NCCOc1ccc(C[C@H](N)C(=O)O)cc1; 3Pal = N[C@@H](Cc1cccnc1)C(=O)O; Myristoyl = CCCCCCCCCCCCCC(=O)*; Lys(Me) = CNCCCC[C@H](N)C(=O)O; Pen = CC(C)(S)[C@H](N)C(=O)O; ξLys(Me) = CNCCCCC(N)C(=O)O; αMeC = C[C@](N)(CS)C(=O)O; Thp = NC1(C(=O)O)CCOCC1; X3 = C[N+](C)(C)CCCCC*; AEEA = NCCOCCOCC(=O)O; Tfa = O=C(C(F)(F)F)*; Sar = CNCC(=O)O

Columns and labels:
[1] = target: T1, interleukin-23 (IL-23) receptor (Homo sapiens, UniProt Q5VWK5); assay: PBMC pSTAT3 assay; type: cell-based
T1 construct: Cryopreserved peripheral blood mononuclear cells (PBMCs) from healthy donors were thawed; endogenous in cells; host or cells: cryopreserved PBMCs from healthy donors, expanded 4 days on anti-CD3 with IL-1
T1 sequence (Q5VWK5 24-629): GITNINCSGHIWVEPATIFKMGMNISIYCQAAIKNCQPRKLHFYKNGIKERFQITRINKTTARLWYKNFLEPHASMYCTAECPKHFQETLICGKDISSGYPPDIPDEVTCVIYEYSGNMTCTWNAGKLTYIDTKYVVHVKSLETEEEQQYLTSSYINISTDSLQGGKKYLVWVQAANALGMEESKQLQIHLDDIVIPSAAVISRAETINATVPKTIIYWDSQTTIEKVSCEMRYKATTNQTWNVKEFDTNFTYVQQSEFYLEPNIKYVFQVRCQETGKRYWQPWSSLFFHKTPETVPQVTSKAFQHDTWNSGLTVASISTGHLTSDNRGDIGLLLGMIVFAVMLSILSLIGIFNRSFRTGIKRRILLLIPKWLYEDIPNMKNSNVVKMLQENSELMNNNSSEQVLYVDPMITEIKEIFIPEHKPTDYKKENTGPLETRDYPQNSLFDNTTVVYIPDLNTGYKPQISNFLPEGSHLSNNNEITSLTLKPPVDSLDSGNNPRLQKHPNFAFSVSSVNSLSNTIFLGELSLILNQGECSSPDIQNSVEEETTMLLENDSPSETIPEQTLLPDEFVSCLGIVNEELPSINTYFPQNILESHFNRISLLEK
Protocol: Cryopreserved peripheral blood mononuclear cells (PBMCs) from healthy donors were thawed and washed twice in ImmunoCult-XF T cell expansion medium (XF-TCEM) supplemented with CTL anti-aggregate wash. The cells were counted, resuspended at 2×10^5 cells per mL XF-TCEM supplemented with penicillin/streptomycin and 100 ng/mL IL-1 (BioLegend, 579404), and cultured in tissue culture flasks coated with anti-CD3 (eBioscience, 16-0037-85 or BD Pharmingen, 555329) at 37° C. in 5% CO2. On day 4 of culture, PBMCs were collected, washed twice in RPMI-1640 supplemented with 0.1% BSA (RPMI-BSA), and incubated in RPMI-BSA in upright tissue culture flasks for 4 hours at 37° C. in 5% CO2. Following this ‘starvation,’ a total of 6×10^4 cells in […] RPMI-BSA was transferred into each well of a 384-well plate pre-spotted with peptide or DMSO. The cells were incubated for 30 minutes prior to the addition of IL-23 at a final concentration of 5 ng/mL. The cells were stimulated with cytokine for 30 minutes at 37° C. in 5% CO2, transferred onto ice for 10 minutes, and lysed. Cell lysates were stored at −80° C. until phosphorylated STAT3 was measured using the phospho-STAT panel kit (Meso Scale Discovery, K15202D).

[2] = Exposed Polar Surface Area (EPSA); type: physicochemical; conditions: SFC on Chirex 3014 column, sample 1 mM DMSO stock
Procedure, shortened: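 Polarity descriptor in Å² derived from retention time using 8 calibration standards re-run every 20 compounds. Duplicate injections of 1 mM DMSO stock; linear 5–60% modifier gradient (20 mM ammonium formate in MeOH) with CO2 at 4 mL/min, 35 °C, on a Chirex 3014 column.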

IL-23R = target: T2, IL-23R (Homo sapiens, UniProt Q5VWK5); assay: IL23R Reporter Assay; type: cell-based; conditions: HEK293 cells containing IL-23R, IL-12RP1 and STAT-inducible firefly luciferase reporter; 10 ng/mL IL-23 (EC90); 5 h at 37° C.; read-out: IL23R Reporter Assay
T2 construct: host or cells: HEK293
T2 sequence (Q5VWK5 24-629): T1 sequence (Q5VWK5 24-629)

IC50 [1] | EPSA ([2]; read-out: EPSA) | IC50 (IL-23R) | Compound | EPSA [2]
– | 166 A^2 | 5.8 nM | CCCCCCCCCCCC(=O)N[C@@H](CCC(=O)NCCOCCOCC(=O)NCCOCCOCC(=O)NCCCC[C@@H](NC(C)=O)C(=O)N[C@@H]1C(=O)N[C@@H](CC(N)=O)C(=O)N[C@@H]([C@@H](C)O)C(=O)N[C@H](Cc2c[nH]c3c(C)cccc23)C(=O)N[C@@H](CCCCNC(C)=O)C(=O)N[C@H](C(=O)N[C@@H](Cc2ccc(OCCN)cc2)C(=O)N[C@@H](Cc2ccc3ccccc3c2)C(=O)NC2(C(=O)N[C@@H](CCCCNC(C)=O)C(=O)N[C@@H](CC(N)=O)C(=O)N[C@@H](Cc3cccnc3)C(=O)N(C)CC(N)=O)CCOCC2)C(C)(C)SSC1(C)C)C(=O)N[C@H](CC(=O)O)C[N+](C)(C)C [compound 572, MeCO-canEG2PEG2gE(c)C12-Pen(3)-N-T-7MeW-K(Ac)-Pen(3)-AEF-2Nal-THP-K(Ac)-N-3Pya-Sar-CONH2] (Ac-[dK]([AEEA-AEEA-X48])[Pen]NT[dTrp(7-Me)]K(Ac)[Pen][AEF][2Nal][Thp]K(Ac)N[3Pal][Sar]-NH2; disulfide 2-7) | –
– | 153 A^2 | 650 nM | CC(=O)N(C)CCCCC(NC(=O)C1(NC(=O)[C@H](Cc2ccc3ccccc3c2)NC(=O)[C@H](Cc2ccc(OCCOCCOCC[N+](C)(C)C)cc2)NC(=O)[C@H]2NC(=O)[C@H](CCCCN(C)C(C)=O)NC(=O)[C@H](Cc3c[nH]c4c(C)cccc34)NC(=O)[C@H]([C@@H](C)O)NC(=O)[C@H](CC(=O)N(C)C)NC(=O)[C@@H](NC(=O)CCOCCOCC[N+](C)(C)C)C(C)(C)SSC2(C)C)CCOCC1)C(=O)N[C@@H](CC(N)=O)C(=O)N[C@@H](Cc1ccccc1)C(=O)N(C)CC(=O)N(C)C (stereo partly shown) [compound 573, cPEG3aCO-Pen(3)-N(N(Me)2)-T-7MeW-K(NMeAc)-Pen(3)-APEG3F-2Nal-THP-K(NMeAc)-N-F-Sar-CON(Me)2] ({Me3N+(CH2)2O(CH2)2O(CH2)2CO}-[Pen]D(NMe2)T[Trp(7-Me)][Lys(Me)](Ac)[Pen]Y(CH2CH2OCH2CH2OCH2CH2NMe3+)[2Nal][Thp][ξLys(Me)](Ac)NF[Sar]-NMe2; disulfide 1-6) | –

Continued, compound first:

Compound | IC50 [1] | EPSA ([2]; read-out: EPSA) | IC50 (IL-23R) | EPSA [2]
CC(=O)N(C)CCCC[C@@H]1NC(=O)[C@H](Cc2c[nH]c3c(C)cccc23)NC(=O)[C@H]([C@@H](C)O)NC(=O)[C@H](CC(=O)N(C)C)NC(=O)[C@@H](NC(=O)C(F)(F)F)C(C)(C)SSC(C)(C)[C@@H](C(=O)N[C@@H](Cc2ccc(OCCN)cc2)C(=O)N[C@@H](Cc2ccc3ccccc3c2)C(=O)NC2(C(=O)N[C@@H](CCCCN(C)C(C)=O)C(=O)N[C@@H](CC(N)=O)C(=O)N[C@@H](Cc3cccnc3)C(=O)N(C)CC(=O)N(C)C)CCOCC2)NC1=O [compound 68, CF3CO-Pen(3)-N(N(Me)2)-T-7MeW-K(NMeAc)-Pen(3)-AEF-2Nal-THP-K(NMeAc)-N-3Pya-Sar-CON(Me)2] (Tfa-[Pen]D(NMe2)T[Trp(7-Me)][Lys(Me)](Ac)[Pen][AEF][2Nal][Thp][Lys(Me)](Ac)N[3Pal][Sar]-NMe2; disulfide 1-6) | 0.012 nM | 148 A^2 | – | –
CC(=O)NCCCC[C@@H]1NC(=O)[C@H](Cc2c[nH]c3c(C)cccc23)NC(=O)[C@H]([C@@H](C)O)NC(=O)[C@H](CC(N)=O)NC(=O)[C@@H](NC(=O)CCOCCOCC[N+](C)(C)C)C(C)(C)SSC(C)(C)[C@@H](C(=O)N[C@@H](Cc2ccc(OCCN)cc2)C(=O)N[C@@H](Cc2ccc3ccccc3c2)C(=O)NC2(C(=O)N[C@@H](CCC(=O)O)C(=O)N[C@@H](CC(N)=O)C(=O)N[C@@H](Cc3cccnc3)C(=O)N(C)CC(N)=O)CCOCC2)NC1=O [compound 82, cPEG3aCO-Pen(3)-N-T-7MeW-K(Ac)-Pen(3)-AEF-2Nal-THP-E-N-3Pya-Sar-CONH2] ({Me3N+(CH2)2O(CH2)2O(CH2)2CO}-[Pen]NT[Trp(7-Me)]K(Ac)[Pen][AEF][2Nal][Thp]EN[3Pal][Sar]-NH2; disulfide 1-6) | 0.0057 nM | 171 A^2 | – | –
CC(=O)NCCCC[C@@H]1NC(=O)[C@H](Cc2c[nH]c3ccccc23)NC(=O)[C@H]([C@@H](C)O)NC(=O)[C@H](CC(N)=O)NC(=O)[C@@H](NC(=O)[C@@H](CCCC[N+](C)(C)C)NC(C)=O)CCSC[C@@](C)(C(=O)N[C@@H](Cc2ccc(OCCCCC[N+](C)(C)C)cc2)C(=O)N[C@@H](Cc2ccc3ccccc3c2)C(=O)NC2(C(=O)N[C@@H](CCC(=O)O)C(=O)N[C@@H](CC(N)=O)C(=O)N[C@@H](Cc3cccnc3)C(=O)N(C)CC(N)=O)CCOCC2)NC1=O [compound 567, MeCO-k(Me)3-Abu(1)-N-T-W-K(Ac)-aMeC(1)-TMAPF-2Nal-THP-E-N-3Pya-Sar-CONH2] (Ac-[dLys(Me3)][Abu(4-yl)]NTWK(Ac)[αMeC]Y(X3)[2Nal][Thp]EN[3Pal][Sar]-NH2; thioether 2-7) | – | 172 A^2 | 3.1 nM | –
CC(=O)NCCCC[C@@H]1NC(=O)[C@H](Cc2c[nH]c3ccccc23)NC(=O)[C@H]([C@@H](C)O)NC(=O)[C@H](CC(N)=O)NC(=O)[C@@H](NC(=O)[C@@H](CCCNC(=N)N)NC(C)=O)CCSC[C@@](C)(C(=O)N[C@@H](Cc2ccc(OCCCCC[N+](C)(C)C)cc2)C(=O)N[C@@H](Cc2ccc3ccccc3c2)C(=O)NC2(C(=O)N[C@@H](CCCCNC(C)=O)C(=O)N[C@@H](CC(N)=O)C(=O)N[C@@H](Cc3cccnc3)C(=O)N(C)CC(N)=O)CCOCC2)NC1=O [compound 568, MeCO-r-Abu(1)-N-T-W-K(Ac)-aMeC(1)-TMAPF-2Nal-THP-K(Ac)-N-3Pya-Sar-CONH2] (Ac-[dR][Abu(4-yl)]NTWK(Ac)[αMeC]Y(X3)[2Nal][Thp]K(Ac)N[3Pal][Sar]-NH2; thioether 2-7) | – | 174 A^2 | 390 nM | –
CCCCCCCCCCCCCC(=O)N[C@@H](CCC(=O)NCCOCCOCC(=O)NCCOCCOCC(=O)NCCCC[C@H](NC(=O)[C@H](Cc1ccc2ccccc2c1)NC(=O)[C@H](Cc1ccc(OCCCCC[N+](C)(C)C)cc1)NC(=O)[C@H]1NC(=O)[C@H](CCCCN(C)C(C)=O)NC(=O)[C@H](Cc2c[nH]c3c(C)cccc23)NC(=O)[C@H]([C@@H](C)O)NC(=O)[C@H](CC(=O)N(C)C)NC(=O)[C@@H](NC(=O)[C@@H](CCCCC[N+](C)(C)C)NC(=O)COCCOCCNC(=O)COCCOCCNC(=O)CC[C@H](NC(=O)CCCCCCCCCCCCC)C(=O)O)C(C)(C)SSC1(C)C)C(=O)N[C@@H](CC(N)=O)C(=O)N[C@@H](Cc1cccnc1)C(=O)N(C)CC(=O)N(C)C)C(=O)O [compound 570, C14gEPEG2PEG2CO-hk(Me)3-Pen(3)-N(N(Me)2)-T-7MeW-K(NMeAc)-Pen(3)-TMAPF-2Nal-K(PEG2PEG2gEC14)-N-3Pya-Sar-CON(Me)2] ({Myristoyl-γGlu-AEEA-AEEA}-[d(hLys(Me3))][Pen]D(NMe2)T[Trp(7-Me)][Lys(Me)](Ac)[Pen]Y(X3)[2Nal]K([AEEA-AEEA-γGlu-Myristoyl])N[3Pal][Sar]-NMe2; disulfide 2-7) | – | 154 A^2 | 29 nM | –
cPEG3aCO-k(PEG2PEG2gEC14)-Pen(3)-N(N(Me)2)-T-7MeW-K(NMeAc)-Pen(3)-TMAPF-2Nal-THP-K(NMeAc)-N-3Pya-Sar-CON(Me)2 [compound 379] | – | – | 12 nM | 149.74 Å^2
